Experimental findings from ChEMBL document CHEMBL5727865, “4,6-substituted-pyrazolo[1,5-a]pyrazines as Janus kinase inhibitors” (2020) are described below.

Where only a bound is given, the exact number is not on record here.

Broadly, the IC50 is the point on the concentration scale where inhibition reaches its midpoint.

Test [1] deals with Tyrosine-protein kinase JAK1 (Homo sapiens, UniProt P23458). The test can be described thus: JAK1 Inhibition Assay: Compounds of Formula I were screened for their ability to inhibit JAK1 using the general enzyme inhibition assay method, in which the assay mixture contained 1 mM ATP, 8 μM Omnia Y12 peptide (Catalog # IVGN KPZ3121C; Invitrogen Corporation, Carlsbad, Calif.) and 12.5 nM JAK1 in a total volume of 25 μL. JAK1 was purchased from Invitrogen Corporation, Carlsbad, Calif. (catalog # IVGN PV4775).
Chain of Tyrosine-protein kinase JAK1 (P23458 whole entry): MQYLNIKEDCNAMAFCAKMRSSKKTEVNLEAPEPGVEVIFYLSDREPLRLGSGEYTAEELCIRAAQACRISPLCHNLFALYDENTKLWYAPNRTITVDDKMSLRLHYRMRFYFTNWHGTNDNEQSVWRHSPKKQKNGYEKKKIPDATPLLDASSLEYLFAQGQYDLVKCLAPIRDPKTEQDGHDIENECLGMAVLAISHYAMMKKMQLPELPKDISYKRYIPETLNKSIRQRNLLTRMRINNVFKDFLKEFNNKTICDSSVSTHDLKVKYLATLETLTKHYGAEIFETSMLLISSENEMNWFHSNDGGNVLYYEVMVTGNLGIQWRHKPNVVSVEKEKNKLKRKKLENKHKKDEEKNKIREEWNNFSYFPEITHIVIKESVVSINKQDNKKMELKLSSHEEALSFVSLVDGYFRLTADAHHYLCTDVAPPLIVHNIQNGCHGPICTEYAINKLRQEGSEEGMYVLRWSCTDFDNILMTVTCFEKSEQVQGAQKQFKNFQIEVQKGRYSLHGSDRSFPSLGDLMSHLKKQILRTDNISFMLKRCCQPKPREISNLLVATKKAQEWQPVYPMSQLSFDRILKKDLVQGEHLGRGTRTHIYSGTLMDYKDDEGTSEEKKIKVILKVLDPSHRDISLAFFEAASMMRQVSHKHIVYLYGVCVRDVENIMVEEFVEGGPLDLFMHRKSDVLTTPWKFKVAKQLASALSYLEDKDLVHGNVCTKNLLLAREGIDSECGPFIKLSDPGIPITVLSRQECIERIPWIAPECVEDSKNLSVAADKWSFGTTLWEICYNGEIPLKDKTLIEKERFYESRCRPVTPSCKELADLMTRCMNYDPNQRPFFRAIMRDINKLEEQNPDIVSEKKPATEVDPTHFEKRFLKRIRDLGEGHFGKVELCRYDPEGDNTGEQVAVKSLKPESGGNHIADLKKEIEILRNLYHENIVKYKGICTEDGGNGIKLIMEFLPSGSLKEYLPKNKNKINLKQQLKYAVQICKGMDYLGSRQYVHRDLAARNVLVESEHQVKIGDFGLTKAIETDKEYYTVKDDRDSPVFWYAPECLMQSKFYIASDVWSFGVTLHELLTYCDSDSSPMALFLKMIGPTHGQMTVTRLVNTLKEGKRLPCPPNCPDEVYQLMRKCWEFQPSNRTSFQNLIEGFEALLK

The target of test [2] is Tyrosine-protein kinase JAK2 (Homo sapiens, UniProt O60674). The test can be described thus: JAK2 Inhibition Assay: Compounds of Formula I were screened for their ability to inhibit JAK2 using the general enzyme inhibition assay method, in which the assay mixture contained 1 mM ATP, 10 μM Omnia Y7 peptide (Catalog # IVGN KNZ3071C, Invitrogen Corporation, Carlsbad, Calif.) and 4 nM JAK2 in a total volume of 25 μL. JAK2 was purchased from Invitrogen Corporation, Carlsbad, Calif. (catalog # IVGN PV4288).
Chain of Tyrosine-protein kinase JAK2 (O60674 whole entry): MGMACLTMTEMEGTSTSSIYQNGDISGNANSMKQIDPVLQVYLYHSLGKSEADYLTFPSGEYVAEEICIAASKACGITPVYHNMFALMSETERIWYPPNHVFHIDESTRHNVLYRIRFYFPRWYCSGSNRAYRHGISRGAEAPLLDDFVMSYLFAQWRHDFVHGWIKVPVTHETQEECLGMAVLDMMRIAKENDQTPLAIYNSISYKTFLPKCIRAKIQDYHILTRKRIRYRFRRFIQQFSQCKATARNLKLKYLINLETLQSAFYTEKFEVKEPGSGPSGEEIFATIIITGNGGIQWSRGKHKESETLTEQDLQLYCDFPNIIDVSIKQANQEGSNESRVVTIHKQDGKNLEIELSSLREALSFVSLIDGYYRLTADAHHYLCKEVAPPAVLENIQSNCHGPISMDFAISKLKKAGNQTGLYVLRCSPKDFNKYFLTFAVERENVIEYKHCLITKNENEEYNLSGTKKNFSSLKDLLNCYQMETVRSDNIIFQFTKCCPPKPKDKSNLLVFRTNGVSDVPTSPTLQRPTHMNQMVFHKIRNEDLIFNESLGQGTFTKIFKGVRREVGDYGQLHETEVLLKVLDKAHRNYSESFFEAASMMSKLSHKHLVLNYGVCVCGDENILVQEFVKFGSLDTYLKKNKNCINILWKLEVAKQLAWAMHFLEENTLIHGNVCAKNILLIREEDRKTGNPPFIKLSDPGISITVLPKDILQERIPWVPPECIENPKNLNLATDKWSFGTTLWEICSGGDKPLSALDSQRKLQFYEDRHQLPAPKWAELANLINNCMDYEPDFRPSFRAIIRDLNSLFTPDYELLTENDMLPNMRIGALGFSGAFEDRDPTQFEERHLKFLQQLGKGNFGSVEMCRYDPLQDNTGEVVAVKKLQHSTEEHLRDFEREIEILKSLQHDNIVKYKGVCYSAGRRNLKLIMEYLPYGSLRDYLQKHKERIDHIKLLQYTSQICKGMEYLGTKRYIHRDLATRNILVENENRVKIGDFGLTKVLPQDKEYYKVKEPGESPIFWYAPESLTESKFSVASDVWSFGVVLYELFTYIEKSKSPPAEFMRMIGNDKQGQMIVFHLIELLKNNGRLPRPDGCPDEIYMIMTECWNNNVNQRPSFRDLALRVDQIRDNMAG

Take `CCC(CC)n1cc(-c2nc(-c3cnn([C@H]4C[C@@](O)(CO)C4)c3)cn3nccc23)cn1`: the half-inhibitory concentration (IC50) entry in test [1] is “in the range around 5500 nM”.
With `CCC(CC)n1cc(-c2nc(-c3cnn([C@H]4C[C@@H](O)[C@@H](O)C4)c3)cn3nccc23)cn1`, the IC50 in test [2] was less than 10 nM.
